Results taken from patent US20200345725A1, “Methods and Compositions for Treating Cancer” (Omeros Corporation, priority 2019, published 2020).
Where “and” joins values, the source holds several entries; their conditions need not be identical. Identical values can stand only once. Entries after “also recorded” stand apart in the source; their conditions may differ.

How the values were obtained:
Assay type in all cases: cell-based
[1] = molecular target: T1, GPR174 (Homo sapiens, UniProt Q9BXC1); test: Cellular redistribution assay (CRA) for GPR174; settings: multiple values = separate experiments
From the text: One method for identifying compounds capable of modulating a receptor is using a cellular redistribution assay (“CRA”). Exemplary CRA methods are found in U.S. Pat. No. 7,309,576 issued to O'Dowd et al. and in O'Dowd et al., J. Biomol. Screen. 12:175-85,2007. […] Incorporation of the NLS alters the cellular localization of the GPCR, such that the majority of the NLS-modified receptor is present in the cell interior. An NLS-modified GPCR, when interacting with a functionally active compound, is mostly localized on the cell surface. Thus, it becomes possible to identify receptor modulators without knowledge of the endogenous ligand or a surrogate ligand.
The inventors have identified a number of compounds that inhibit GPR174 using a CRA assay similar to that described in U.S. Pat. No. 7,309,576 and in O'Dowd et al., J. Biomol. Screen. 12:175-85, 2007. These compounds are described in detail below.
The inventors used a CRA similar to that described in U.S. Pat. No. 7,309,576 and O'Dowd et al., J. Biomol. Screen. 12:175-85, 2007 to identify compounds that are capable of interacting with GPR174 using a library of approximately 370,000 chemical entities. Briefly described, the CRA assay described in U.S. Pat. No. 7,309,576 involves artificially inserting a NLS into the dopamine D1 receptor (DRD1), which allows the receptor to traffic from the cell membrane to the cell interior, and that the binding of antagonists to the receptor retained the receptor at the cell surface, while removal of the ligand allowed the receptor to continue to internalize from the cell surface. Both antagonists and agonists that selectively bound the receptor retained the receptor on the plasma membrane. GPR174 constructs were generated for use in a CRA-based compound screening assay. From this screen, the inventors initially identified compounds of formula I-VI, as described herein and included in Table 1.
Target sequence in this assay (Q9BXC1 1-292 limits assumed): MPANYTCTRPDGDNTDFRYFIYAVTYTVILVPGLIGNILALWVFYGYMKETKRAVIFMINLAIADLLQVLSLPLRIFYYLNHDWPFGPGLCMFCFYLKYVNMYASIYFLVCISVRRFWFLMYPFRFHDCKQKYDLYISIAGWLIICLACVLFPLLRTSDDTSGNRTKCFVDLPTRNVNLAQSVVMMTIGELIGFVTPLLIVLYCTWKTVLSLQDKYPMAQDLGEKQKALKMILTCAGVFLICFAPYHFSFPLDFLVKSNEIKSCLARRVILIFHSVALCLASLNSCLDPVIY

[2] = molecular target: T1, GPR174; test: CRE-Luc reporter Gs signaling assay with GPR174; set-up: host or cells: HEK293 or CHO cell lines (ATCC); settings: for Fold decrease in Gs signaling activity / EC50 / Human GPR174 CRE Activity: nature of the compound (IA, antagonist, NM): pCRE-Luc reporter; for EC50: multiple values = separate experiments; for Gs pathway in the presence of GPR174 (CRE-Luc reporter): increasing concentrations of compound
Target sequence in this assay (Q9BXC1 whole entry): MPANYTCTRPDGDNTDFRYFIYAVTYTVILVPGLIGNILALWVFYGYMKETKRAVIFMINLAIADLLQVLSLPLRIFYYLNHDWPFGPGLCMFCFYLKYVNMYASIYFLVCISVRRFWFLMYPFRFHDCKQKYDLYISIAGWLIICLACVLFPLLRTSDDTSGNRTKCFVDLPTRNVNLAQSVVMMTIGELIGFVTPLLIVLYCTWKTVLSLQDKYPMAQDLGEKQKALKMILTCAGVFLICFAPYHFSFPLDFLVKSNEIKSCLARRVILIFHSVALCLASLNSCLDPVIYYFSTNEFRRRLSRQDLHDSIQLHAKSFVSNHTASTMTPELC

[3] = molecular target: T2, ADBR2 (Homo sapiens, UniProt P07550); test: CRE-Luc reporter assay with control receptor ADBR2
T2 construct: host or cells: HEK293 or CHO cell lines (ATCC)
Procedure: The DNA/lipofectamine 2000 mix (3000 μL) was incubated at room temperature for 30 minutes and then added into a 10 cm culture dish (Corning, NY) containing 70-90% confluent cultured cells, (HEK293 or CHO cell lines (ATCC, VA)), in 15 mL of media. […] The cells were further incubated at 37° C. for various times. The media were removed and the cells lysed.
Compounds were tested in the reporter system with increasing concentrations of GPR174-interacting compounds.
The DNA/lipofectamine 2000 mix (3000 μL) was incubated at room temperature for 30 minutes and then added into a 10 cm culture dish (Corning, NY) containing 70-90% confluent cultured cells, typically HEK293 or CHO cell lines (ATCC, VA), in 15 mL of media. […] Media (26 mL) were added to the detached cells and 120 μL of transfected cells were transferred to each well on a 96-well plate. Increasing concentration of each compound in DMSO (1.2 μl) was added to the cells after plating into the 96-well plate. The cells were further incubated at 37° C. for various times. The media were removed, and the cells lysed.
ADBR2 is a GPCR, like GPR174, that activates the Gs signaling pathway.

T2 sequence (P07550 whole entry): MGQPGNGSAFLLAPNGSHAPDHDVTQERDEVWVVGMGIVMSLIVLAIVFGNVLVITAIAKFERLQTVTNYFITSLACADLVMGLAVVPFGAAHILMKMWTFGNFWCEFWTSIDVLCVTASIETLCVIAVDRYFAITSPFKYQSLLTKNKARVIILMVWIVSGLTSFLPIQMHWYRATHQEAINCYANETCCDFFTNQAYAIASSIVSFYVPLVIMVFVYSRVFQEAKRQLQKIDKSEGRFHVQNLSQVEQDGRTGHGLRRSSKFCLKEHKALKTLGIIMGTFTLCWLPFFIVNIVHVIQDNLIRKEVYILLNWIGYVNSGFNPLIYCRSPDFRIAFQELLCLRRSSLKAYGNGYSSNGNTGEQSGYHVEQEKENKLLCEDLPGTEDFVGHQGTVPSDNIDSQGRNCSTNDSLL

| Structure (SMILES) | EC50 [1] | Fold decrease in Gs signaling activity [2] | EC50 [2] | Gs pathway in the presence of GPR174 (CRE-Luc reporter) [2] | Gs pathway in the presence of ADBR2 (CRE-Luc reporter) [3] | Human GPR174 CRE Activity: nature of the compound (IA, antagonist, NM) [2] |
| --- | --- | --- | --- | --- | --- | --- |
| Cc1ccc(-c2nnc(Nc3ccccc3)c3ccccc23)cc1S(N)(=O)=O [compound 19] |  |  |  | did not modulate | did not modulate | Antagonist or allosteric modulator |
| Cc1cc(Cc2ccc(NC(=O)c3cccs3)c(C)c2)ccc1NC(=O)c1cccs1 [compound 21] |  |  |  | did not modulate | did not modulate | GPR174 antagonist or allosteric modulator |
| CCOc1ccc(C2C3=C(CCCC3=O)NC3=C2C(=O)c2ccccc23)cc1 (stereo not drawn) [compound 23] |  | 14.1 fold | 400 nM and 900 nM and 1200 nM and 1000 nM | inhibited | did not inhibit |  |
| O=C1CCCC2=C1C(c1ccncc1)C1=C(N2)c2ccccc2C1=O (stereo not drawn) [compound 42] |  | 4.3 fold | 6600 nM | inhibited | did not inhibit |  |
| C=C(C)COc1ccc(NC(=O)Nc2ccccc2)cc1 [compound 56] |  | 3 fold | 500 nM |  |  | inverse agonist |
| O=C(N/N=C/c1cc(Cl)ccc1O)c1ccncc1 [compound 57] |  |  |  |  |  | GPR174 antagonists or allosteric modulators; also recorded: Antagonist or allosteric modulator |
| Cc1cc(C(=O)N/N=C/c2cc(Br)ccc2O)c(C)o1 [compound 58] |  |  |  |  |  | GPR174 antagonists or allosteric modulators; also recorded: Antagonist or allosteric modulator |
| S=C(NCc1ccco1)Nc1ccc(I)cc1 [compound 59] |  |  |  |  |  | NM (“NM” refers to “non-modulator.”) |

More lines, main results first:

| EC50 [1] | Fold decrease in Gs signaling activity [2] | EC50 [2] | Gs pathway in the presence of GPR174 (CRE-Luc reporter) [2] | Gs pathway in the presence of ADBR2 (CRE-Luc reporter) [3] | Structure (SMILES) | Human GPR174 CRE Activity: nature of the compound (IA, antagonist, NM) [2] |
| --- | --- | --- | --- | --- | --- | --- |
| > 1200 nM | 2.4 fold | 900 nM |  |  | CCCC(=O)N1CCN(c2cc(N3CCCCC3)c(F)cc2[N+](=O)[O-])CC1 [compound 5] |  |
| > 700 nM | 2.4 fold | 300 nM and 500 nM | inhibited | did not inhibit | CCOC(=O)N1CCN(c2cc(N3CCCCC3)c(F)cc2[N+](=O)[O-])CC1 [compound 7] |  |
| > 2000 nM | 2.1 fold | 700 nM and 500 nM |  |  | CCC(=O)N1CCN(c2cc(N3CCCCC3)c(F)cc2[N+](=O)[O-])CC1 [compound 9] |  |
| > 2000 nM | 2.2 fold | 800 nM and 1200 nM |  |  | CC(=O)N1CCN(c2cc(N3CCC(C)CC3)c(F)cc2[N+](=O)[O-])CC1 [compound 13] |  |
|  | 10.2 fold | 1000 nM and 1500 nM | inhibited | did not inhibit | COc1ccc(C2C3=C(CCCC3=O)NC3=C2C(=O)c2ccccc23)cc1 (stereo not drawn) [compound 22] |  |
|  | 8.9 fold | 1200 nM | inhibited | did not inhibit | CCCCOc1ccc(C2C3=C(CCCC3=O)NC3=C2C(=O)c2ccccc23)cc1 (stereo not drawn) [compound 31] |  |
|  | 9.2 fold | 4400 nM | inhibited | did not inhibit | O=C1CCCC2=C1C(c1ccc(OCCO)cc1)C1=C(N2)c2ccccc2C1=O (stereo not drawn) [compound 33] |  |
|  | 8.3 fold | 2600 nM | inhibited | did not inhibit | O=C1CCCC2=C1C(c1ccc3c(c1)OCCO3)C1=C(N2)c2ccccc2C1=O (stereo not drawn) [compound 36] |  |
|  | 7 fold | 2000 nM |  |  | CCc1ccc(C2C3=C(CCCC3=O)NC3=C2C(=O)c2ccccc23)cn1 (stereo not drawn) [compound 54] |  |
|  | 7 fold | 600 nM |  |  | CCOc1ccc(C2C3=C(CCCC3=O)NC3=C2C(=O)c2ccccc23)cn1 (stereo not drawn) [compound 55] |  |
